Consider 22 compounds from patent US20230129359A1, “MUSCARINIC RECEPTOR 4 ANTAGONISTS AND METHODS OF USE” (Neurocrine Biosciences, Inc., priority 2020, published 2023).

Where only a bound is given, the exact number is not on record here.

The experiment has as its target T1, human M4 receptor (Homo sapiens, UniProt P08173).
T1 construct: expressed in transfected cells; host or cells: CHO cells
T1 sequence (P08173 1-479): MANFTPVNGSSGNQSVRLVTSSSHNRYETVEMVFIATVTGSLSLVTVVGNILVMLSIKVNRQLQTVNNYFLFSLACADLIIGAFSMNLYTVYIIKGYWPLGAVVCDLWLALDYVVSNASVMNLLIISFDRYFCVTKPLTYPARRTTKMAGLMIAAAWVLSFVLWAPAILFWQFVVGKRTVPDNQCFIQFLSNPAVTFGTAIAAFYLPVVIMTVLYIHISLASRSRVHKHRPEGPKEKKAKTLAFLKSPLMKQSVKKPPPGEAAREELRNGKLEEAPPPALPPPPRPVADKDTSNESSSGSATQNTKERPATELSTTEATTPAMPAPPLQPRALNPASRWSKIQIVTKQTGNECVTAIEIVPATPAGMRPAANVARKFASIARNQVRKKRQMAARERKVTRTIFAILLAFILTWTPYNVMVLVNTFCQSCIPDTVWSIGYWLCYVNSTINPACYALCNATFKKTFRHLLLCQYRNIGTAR
Description: Radioligand ([3H]N-methylscopolamine) binding assay, membranes from CHO cells expressing human M4 receptor. The note with it: Ki against human M4 receptor; membranes from CHO cells; tritiated N-methylscopolamine 1.5 nM; read-out: K. The method, then:
Binding affinity (Ki) for the compounds was measured by inhibition of radioligand binding to membranes from CHO cells expressing human M4 receptor. Membranes were prepared by nitrogen cavitation and differential centrifugation as previously described (Hoare et al., Mol. Pharmacol. 2003 March; 63(3): 751-65). The radioligand employed was tritiated N-methylscopolamine, used at a concentration of 1.5 nM. A dose-response of twelve concentrations of compound was used, ranging from […]. The assay buffer was 50 mM HEPES, 100 mM NaCl, 5 mM MgCl2, 1 mM ethylenediaminetetraacetic acid, pH-adjusted to pH 7.4. Membranes, radioligand and compound were incubated together for 90 minutes at 37° C., in a total volume of 150 μL in a 96-well plate. Receptor-bound radioligand was then collected by harvesting the assay over glass fiber filters pretreated with polyethylenimine to trap the cell membranes, using rapid vacuum filtration. Harvesting and radioactivity counting was conducted as previously described (see, e.g., Hoare et al., Mol. Pharmacol. 2003 63(3):751-65); Erratum at Mol. Pharmacol. 2005 July; 68(1): 260).
Turning to `C[C@@H]1CN(c2ncc(C(F)(F)F)cn2)[C@@H](C)CN1C(=O)NC1CC2(C1)CN(Cc1ccccc1)C2` [Compound 1, (2R,5S)—N-{2-Benzyl-2-azaspiro[3.3]heptan-6-yl}-2,5-dimethyl-4-[5-(trifluoromethyl)pyrimidin-2-yl]piperazine-1-carboxamide], the Ki was below 10 nM.

In the case of `C[C@H]1CN(c2ncc(C(F)(F)F)cn2)CCN1C(=O)NC1CC2(C1)CN(Cc1ccccc1)C2` [Compound 5, (2S)-N-{2-benzyl-2-azaspiro[3.3]heptan-6-yl}-2-methyl-4-[5-(trifluoromethyl)pyrimidin-2-yl]piperazine-1-carboxamide], the Ki is 10 to 100 nM.

For `C[C@H]1CN(C(=O)NC2CC3(C2)CN(Cc2ccccc2)C3)CCN1c1ncc(C(F)(F)F)cn1` [Compound 6, (3S)-N-{2-benzyl-2-azaspiro[3.3]heptan-6-yl}-3-methyl-4-[5-(trifluoromethyl)pyrimidin-2-yl]piperazine-1-carboxamide], the Ki fell in the range of 10 to 100 nM.

For the compound `C[C@@H]1CN(c2ncc(C(F)(F)F)cn2)CCN1C(=O)NC1CC2(C1)CN(Cc1ccccc1)C2` [Compound 7, (2R)-N-{2-benzyl-2-azaspiro[3.3]heptan-6-yl}-2-methyl-4-[5-(trifluoromethyl)pyrimidin-2-yl]piperazine-1-carboxamide], the Ki lay in the range of 10 to 100 nM.

`C[C@@H]1CN(c2ccc(F)c(C#N)c2)CCN1C(=O)NC1CC2(C1)CN(Cc1ccccc1)C2` [Compound 12, (2R)-N-{2-benzyl-2-azaspiro[3.3]heptan-6-yl}-4-(3-cyano-4-fluorophenyl)-2-methylpiperazine-1-carboxamide]: the Ki fell in the range of 10 to 100 nM.

In the case of `C[C@@H]1CN(c2ccc(OC(F)(F)F)c(C#N)c2)CCN1C(=O)NC1CC2(C1)CN(Cc1ccccc1)C2` [Compound 13, (2R)-N-{2-benzyl-2-azaspiro[3.3]heptan-6-yl}-4-[3-cyano-4-(trifluoromethoxy)phenyl]-2-methylpiperazine-1-carboxamide], the Ki was below 10 nM.

For the compound `C[C@@H]1CN(c2cnc(C(F)(F)F)cn2)CCN1C(=O)NC1CC2(C1)CN(Cc1ccccc1)C2` [Compound 22, (2R)-N-{2-benzyl-2-azaspiro[3.3]heptan-6-yl}-2-methyl-4-[5-(trifluoromethyl)pyrazin-2-yl]piperazine-1-carboxamide], the Ki was 100 to 1000 nM.

In the case of `C[C@@H]1CN(c2ncc(C#N)cn2)[C@@H](C)CN1C(=O)NC1CC2(C1)CN(Cc1ccccc1)C2` [Compound 26, (2R,5S)-N-{2-benzyl-2-azaspiro[3.3]heptan-6-yl}-4-(5-cyanopyrimidin-2-yl)-2,5-dimethylpiperazine-1-carboxamide], the Ki lay within 10 to 100 nM.

Consider `C[C@@H]1CN(c2cnc(C(F)(F)F)cn2)[C@@H](C)CN1C(=O)NC1CC2(C1)CN(Cc1ccccc1)C2` [Compound 35, (2R,5S)-N-{2-benzyl-2-azaspiro[3.3]heptan-6-yl}-2,5-dimethyl-4-[5-(trifluoromethyl)pyrazin-2-yl]piperazine-1-carboxamide], for which the Ki lay within 10 to 100 nM.

For `C[C@@H]1CN(C(=O)NC2CC3(C2)CN(Cc2ccccc2)C3)[C@@H](C)CN1c1ncc(C(F)(F)F)cn1` [Compound 36, (2S,5R)-N-{2-benzyl-2-azaspiro[3.3]heptan-6-yl}-2,5-dimethyl-4-[5-(trifluoromethyl)pyrimidin-2-yl]piperazine-1-carboxamide], the Ki lay in the range of 10 to 100 nM.

On to `C[C@@H]1CN(C(=O)NC2CC3(C2)CN(Cc2ccccc2)C3)[C@@H](C)CN1c1cnc(C(F)(F)F)cn1` [Compound 37, (2S,5R)-N-{2-benzyl-2-azaspiro[3.3]heptan-6-yl}-2,5-dimethyl-4-[5-(trifluoromethyl)pyrazin-2-yl)piperazine-1-carboxamide], for which the Ki is 10 to 100 nM.

Regarding `C[C@@H]1CN(c2ncc(C(F)(F)F)cn2)[C@H](C)CN1C(=O)NC1CC2(C1)CN(Cc1ccccc1)C2` [Compound 38, (2R,5R)-N-{2-benzyl-2-azaspiro[3.3]heptan-6-yl}-2,5-dimethyl-4-[5-(trifluoromethyl)pyrimidin-2-yl]piperazine-1-carboxamide], the Ki was in the range of 10 to 100 nM.

Regarding `C[C@@H]1CN(c2cc(F)c(F)c(F)c2)CCN1C(=O)NC1CC2(C1)CN(Cc1ccccc1)C2` [Compound 44, (2R)-N-{2-benzyl-2-azaspiro[3.3]heptan-6-yl}-2-methyl-4-(3,4,5-trifluorophenyl)piperazine-1-carboxamide], the Ki is 10 to 100 nM.

Take `C[C@@H]1CN(c2cc(F)c(F)c(F)c2)C[C@H](C)N1C(=O)NC1CC2(C1)CN(Cc1ccccc1)C2` [Compound 45, (2R,6S)-N-{2-benzyl-2-azaspiro[3.3]heptan-6-yl}-2,6-dimethyl-4-(3,4,5-trifluroophenyl)piperazine-1-carboxamide]: the Ki was below 10 nM.

Take `C[C@@H]1CN(c2ccc(C(F)(F)F)cc2)C[C@H](C)N1C(=O)NC1CC2(C1)CN(Cc1ccccc1)C2` [Compound 47, (2R,6S)-N-{2-benzyl-2-azaspiro[3.3]heptan-6-yl}-2,6-dimethyl-4-[4-(trifluoromethyl)phenyl]pipera-zine-1-carboxamide]: the Ki was below 10 nM.

On to `C[C@@H]1CN(c2ccc(C(F)(F)F)cc2)C[C@@H](C)N1C(=O)NC1CC2(C1)CN(Cc1ccccc1)C2` [Compound 51, (2R,6R)-N-{2-benzyl-2-azaspiro[3.3]heptan-6-yl}-2,6-dimethyl-4-[4-(trifluoromethyl)phenyl]pipera-zine-1-carboxamide], for which the Ki was below 10 nM.

Consider `C[C@@H]1CN(c2cnc(C(F)(F)F)cn2)C[C@H](C)N1C(=O)NC1CC2(C1)CN(Cc1ccccc1)C2` [Compound 62, (2R,6S)—N-{2-Benzyl-2-azaspiro[3.3]heptan-6-yl}-2,6-dimethyl-4-[5-(trifluoromethyl)pyrazin-2-yl]piperazine-1-carboxamide], for which the Ki is 10 to 100 nM.

`C[C@@H]1CN(c2cnc(C(F)(F)F)cn2)C[C@@H](C)N1C(=O)NCC1CC2(C1)CN(Cc1ccccc1)C2` [Compound 63, (2R,6R)-N-({2-benzyl-2-azaspiro[3.3]heptan-6-yl}methyl)-2,6-dimethyl-4-[5-(trifluoromethyl)pyrazin-2-yl]piperazine-1-carboxamide]: the Ki fell in the range of 100 to 1000 nM.

As for `C[C@@H]1CN(c2cnc(C(F)(F)F)cn2)C[C@@H](C)N1C(=O)NC1CC2(C1)CN(Cc1ccccc1)C2` [Compound 64, (2R,6R)-N-{2-benzyl-2-azaspiro[3.3]heptan-6-yl}-2,6-dimethyl-4-[5-(trifluoromethyl)pyrazin-2-yl]piperazine-1-carboxamide], the Ki was in the range of 100 to 1000 nM.

`C[C@@H]1CN(c2ncc(C(F)(F)F)cn2)C[C@@H](C)N1C(=O)NC1CC2(C1)CN(Cc1ccccc1)C2` [Compound 65, (2R,6R)-N-{2-benzyl-2-azaspiro[3.3]heptan-6-yl}-2,6-dimethyl-4-[5-(trifluoromethyl)pyrimidin-2-yl]piperazine-1-carboxamide]: the Ki is below 10 nM.

Consider `C[C@@H]1CN(c2ncc(C#N)cn2)C[C@H](C)N1C(=O)NC1CC2(C1)CN(Cc1ccccc1)C2` [Compound 66], for which the Ki lay in the range of 100 to 1000 nM.

`C[C@@H]1CN(c2cnc(C(F)(F)F)cn2)C[C@H](C)N1C(=O)NCC1CC2(C1)CN(Cc1ccccc1)C2` [Compound 67, (2R,6S)-N-({2-benzyl-2-azaspiro[3.3]hpetan-6-yl}methyl)-2,6-dimethyl-4-[5-(trifluoromethyl)pyrazin-2-yl]piperazine-1-carboxamide]: the Ki lay within 100 to 1000 nM.
